Test results reported in EP4603105A1, “PHARMACEUTICAL COMPOSITION CONTAINING CYCLIC COMPOUND HAVING SELECTIVE KRAS INHIBITORY EFFECT AGAINST HRAS AND NRAS” (CHUGAI SEIYAKU KABUSHIKI KAISHA, priority 2022, dated 2024).
Where a SMILES comes first, the peptide text is derived from it. Bridges are numbered along the chain shown (N, C = ends). [ ]: non-standard residue; d: D form. The star is where a group is joined. hPhe(3,5-F2-4-CF3) = N[C@@H](CCc1cc(F)c(C(F)(F)F)c(F)c1)C(=O)O; hPhe(3-Cl-4-CF3) = N[C@@H](CCc1ccc(C(F)(F)F)c(Cl)c1)C(=O)O; NPrPhe(4-CF3) = CCCN[C@@H](Cc1ccc(C(F)(F)F)cc1)C(=O)O; NMeGly(cPent) = CN[C@H](C(=O)O)C1CCCC1; Pro(4,4-F2) = O=C(O)[C@@H]1CC(F)(F)CN1; Ac4c(3,3-F2) = NC1(C(=O)O)CC(F)(F)C1; NMeD = CN[C@@H](CC(=O)O)C(=O)O; NMeL = CN[C@@H](CC(C)C)C(=O)O; Morpholide = C1CN(*)CCO1; Ac5c = NC1(C(=O)O)CCCC1; Aze = O=C(O)[C@@H]1CCN1; Ac4c = NC1(C(=O)O)CCC1; NEtG = CCNCC(=O)O; Sar = CNCC(=O)O

How the values were obtained:
[1] = biological target: GDP-bound NRAS wild-type protein (Homo sapiens, UniProt P01111); experiment: Binding to NRAS by surface plasmon resonance (SPR), KD and KD ratio to KRAS
Chain of GDP-bound NRAS wild-type protein (P01111 whole entry): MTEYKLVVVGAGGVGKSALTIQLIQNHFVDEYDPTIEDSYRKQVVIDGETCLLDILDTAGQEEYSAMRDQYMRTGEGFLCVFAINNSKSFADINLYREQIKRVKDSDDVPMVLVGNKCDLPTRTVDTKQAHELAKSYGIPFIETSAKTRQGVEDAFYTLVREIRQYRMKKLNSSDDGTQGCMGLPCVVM
In short: (§1)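 Running buffer contained 10 µM GDP and 10 mM MgCl2 to keep RAS in the GDP state, with 4% DMSO at pH 7.4. Compounds were flowed at 100 µL/min in 75 s steps of rising concentration over captured biotin-Avi RAS at 30°C. Sensorgrams were fitted 1:1 for KD.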

[2] = biological target: HRAS wild-type protein (Homo sapiens, UniProt P01112); experiment: Binding to HRAS by surface plasmon resonance (SPR), KD and KD ratio to KRAS
Chain of HRAS wild-type protein (P01112 whole entry): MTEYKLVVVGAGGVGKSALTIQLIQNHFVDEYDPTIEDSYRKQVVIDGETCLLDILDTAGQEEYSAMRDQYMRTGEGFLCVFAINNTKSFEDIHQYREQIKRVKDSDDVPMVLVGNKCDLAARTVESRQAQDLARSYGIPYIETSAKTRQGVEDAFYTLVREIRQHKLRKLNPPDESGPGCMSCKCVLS
In short: as §1

[3] = system: human lung cancer strain NCI-H441; assay type: cell-based
In short: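 Step one: dispense the test compound in serial DMSO dilutions. Step three: add the reagent and measure […].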

[4] = ratio of the KD value with respect to GDP-bound NRAS wild-type protein to the KD value with respect to KRAS
[5] = ratio of the KD value with respect to HRAS wild-type protein to the KD value with respect to KRAS
[6] = ratio of KD value for GDP-bound NRAS wild-type protein to KD value for KRAS (SPR)
[7] = ratio of KD value for HRAS wild-type protein to KD value for KRAS (SPR)
[8] = ratio of KD for GDP-bound NRAS wild-type protein to KD for KRAS
[9] = ratio of KD for HRAS wild-type protein to KD for KRAS

Row | SMILES | NRAS /KRAS [1, 4] | HRAS /KRAS [2, 5] | IC50 [3] | NRAS /KRAS [1, 6] | HRAS /KRAS [2, 7] | NRAS /KRAS [1, 8] | HRAS /KRAS [2, 9]
1 | CCC[C@H]1C(=O)N[C@@H]([C@@H](C)CC)C(=O)N2CC[C@H]2C(=O)N(C)[C@H]2C/C=C\CCN(C2=O)[C@@H](Cc2ccc(C(F)(F)F)cc2)C(=O)N(C)CC(=O)N[C@@H](CCc2cc(F)c(C(F)(F)F)c(F)c2)C(=O)N2C[C@H](OCC)C[C@H]2C(=O)NC2(CC(C)(C)C2)C(=O)N(C)[C@@H](C2CCCC2)C(=O)N(C)[C@H](C(=O)N(C)C)CC(=O)N1C [PP1925] | A (a compound having 10 or more and less than 20 is denoted as A) | A (a compound having 10 or more and less than 20 is denoted as A) | 0.0097 µM | – | – | – | –
2 | CCCN(C)C(=O)[C@@H]1CC(=O)N(C)[C@@H](COC)C(=O)N[C@@H]([C@@H](C)CC)C(=O)N(C)CC(=O)N(C)[C@H]2C/C=C\CCN(C2=O)[C@@H](Cc2ccc(C(F)(F)F)cc2)C(=O)N(C)CC(=O)N[C@@H](CCc2ccc(C(F)(F)F)c(OC)c2)C(=O)N2C[C@H](OCC)C[C@H]2C(=O)NC2(CC(C)(C)C2)C(=O)N(C)[C@@H](C2CCCC2)C(=O)N1C [PP1656] | – | – | 0.0015 µM | AA (a compound having 20 or more is denoted as AA) | A (a compound having 10 or more and less than 20 is denoted as A) | – | –
3 | CCO[C@@H]1C[C@H]2C(=O)NC3(CCCC3)C(=O)N(C)[C@@H](C3CCCC3)C(=O)N(C)[C@H](C(=O)N(C)C)CC(=O)N(C)[C@@H](CC(C)C)C(=O)N[C@@H]([C@@H](C)CC)C(=O)N(C)CC(=O)N(C)[C@H]3CCCCN(C3=O)[C@@H](Cc3ccc(C(F)(F)F)cc3)C(=O)N(C)CC(=O)N[C@@H](CCc3cc(F)c(C(F)(F)F)c(F)c3)C(=O)N2C1 [PP0579] | C (A compound having a KD ratio of 0.1 or more and less than 3 is denoted as C) | B (a compound having 3 or more and less than 10 is denoted as B) | 0.0024 µM | – | – | – | –
4 | CC[C@H](C)[C@@H]1NC(=O)[C@H](CC)N(C)C(=O)C[C@@H](C(=O)N(C)C)N(C)C(=O)[C@H](C2CCCC2)N(C)C(=O)C2(CCCC2)N(C)C(=O)[C@@H]2C[C@@H](C)CN2C(=O)[C@H](CCc2cc(F)c(C(F)(F)F)c(F)c2)NC(=O)CN(C)C(=O)[C@H](Cc2ccc(C)cc2)N2CC/C=C\C[C@@H](C2=O)N(C)C(=O)[C@@H]2CCCN2C1=O [PP1814] | – | – | 0.0262 µM | A (a compound having 10 or more and less than 20 is denoted as A) | A (a compound having 10 or more and less than 20 is denoted as A) | – | –
5 | CCO[C@@H]1C[C@H]2C(=O)NC3(CCC3)C(=O)N(C)[C@@H](C3CCCC3)C(=O)N(C)[C@H](C(=O)N(C)C)CC(=O)N(C)[C@@H](CC3CCCC3)C(=O)N[C@@H]([C@@H](C)CC)C(=O)N(C)CC(=O)N(C)[C@H]3C/C=C\CCN(C3=O)[C@@H](Cc3ccc(C)cc3)C(=O)N(C)CC(=O)N[C@@H](CCc3cc(F)c(CC)c(OC)c3)C(=O)N2C1 [PP2674] | – | – | 0.0486 µM | – | – | A (a compound having 10 or more and less than 20 is denoted as A) | A (a compound having 10 or more and less than 20 is denoted as A)
6 | CCCN1C(=O)CN(C)C(=O)CN(CC)C(=O)[C@H]([C@@H](C)CC)NC(=O)[C@H](CC(C)C)N(C)C(=O)C[C@@H](C(=O)N2CCOCC2)N(C)C(=O)[C@H](C2CCCC2)N(C)C(=O)C2(CCC2)NC(=O)[C@@H]2CC(F)(F)CN2C(=O)[C@H](CCc2ccc(C(F)(F)F)c(Cl)c2)NC(=O)CN(C)C(=O)[C@@H]1Cc1ccc(C(F)(F)F)cc1 [PP0400] ([NMeL]I[NEtG][Sar][NPrPhe(4-CF3)][Sar][hPhe(3-Cl-4-CF3)][Pro(4,4-F2)][Ac4c][NMeGly(cPent)][NMeD]-Morpholide; lactam N-11) | B (a compound having 3 or more and less than 10 is denoted as B) | B (a compound having 3 or more and less than 10 is denoted as B) | 0.0078 µM | – | – | – | –
7 | CCC[C@H]1C(=O)N[C@@H]([C@@H](C)CC)C(=O)N(C)CC(=O)N(C)[C@H]2C/C=C\CCN(C2=O)[C@@H](Cc2ccc(C(F)(F)F)cc2)C(=O)N(C)CC(=O)N[C@@H](CCc2ccc(Cl)c(Cl)c2)C(=O)N2C[C@H](OCC)C[C@H]2C(=O)NC2(CC(C)(C)C2)C(=O)N(C)[C@@H](CC2CC2)C(=O)N(C)[C@H](C(=O)N(C)C)CC(=O)N1C [PP2811] | – | – | 0.1 µM | – | – | A (a compound having 10 or more and less than 20 is denoted as A) | A (a compound having 10 or more and less than 20 is denoted as A)
8 | CCCN1C(=O)CN(C)C(=O)CNC(=O)[C@H]([C@@H](C)CC)NC(=O)[C@H](CC(C)C)N(C)C(=O)C[C@@H](C(=O)N(C)C)N(C)C(=O)[C@H](C2CCCC2)N(C)C(=O)C2(CCC2)NC(=O)[C@@H]2CC(F)(F)CN2C(=O)[C@H](CCc2ccc(C(F)(F)F)c(Cl)c2)NC(=O)CN(C)C(=O)[C@@H]1Cc1ccc(C(F)(F)F)cc1 [PP0420] ([NMeL]IG[Sar][NPrPhe(4-CF3)][Sar][hPhe(3-Cl-4-CF3)][Pro(4,4-F2)][Ac4c][NMeGly(cPent)][NMeD]-NMe2; lactam N-11) | B (a compound having 3 or more and less than 10 is denoted as B) | C (A compound having a KD ratio of 0.1 or more and less than 3 is denoted as C) | 0.0012 µM | – | – | – | –
9 | CCCN1C(=O)CN(C)C(=O)CN(C)C(=O)[C@H]([C@@H](C)CC)NC(=O)[C@H](CC(C)C)N(C)C(=O)C[C@@H](C(=O)N2CCOCC2)N(C)C(=O)[C@H](C2CCCC2)N(C)C(=O)C2(CC(F)(F)C2)NC(=O)[C@@H]2CCCN2C(=O)[C@H](CCc2cc(F)c(C(F)(F)F)c(F)c2)NC(=O)CN(C)C(=O)[C@@H]1Cc1ccc(C(F)(F)F)cc1 [PP0766] ([NMeL]I[Sar][Sar][NPrPhe(4-CF3)][Sar][hPhe(3,5-F2-4-CF3)]P[Ac4c(3,3-F2)][NMeGly(cPent)][NMeD]-Morpholide; lactam N-11) | – | – | 0.0087 µM | – | – | B (a compound having 3 or more and less than 10 is denoted as B) | B (a compound having 3 or more and less than 10 is denoted as B)
10 | CCC[C@H]1C(=O)N[C@@H]([C@@H](C)CC)C(=O)N(C)CC(=O)N(C)[C@H]2C/C=C\CCN(C2=O)[C@@H](Cc2ccc(C(F)(F)F)cc2)C(=O)N(C)CC(=O)N[C@@H](CCc2ccc3c(C)cn(C)c3c2)C(=O)N2C[C@H](OCC)C[C@H]2C(=O)NC2(CC(C)(C)C2)C(=O)N(C)[C@@H](C(CC)CC)C(=O)N(C)[C@H](C(=O)N(C)C)CC(=O)N1C [PP2908] | – | – | 0.0202 µM | – | – | AA (a compound having 20 or more is denoted as AA) | A (a compound having 10 or more and less than 20 is denoted as A)
11 | CCO[C@@H]1C[C@H]2C(=O)NC3(CCC3)C(=O)N(C)[C@@H](C3CCCC3)C(=O)N(C)[C@H](C(=O)N(C)C)CC(=O)N(C)[C@@H](CC)C(=O)N[C@@H]([C@@H](C)CC)C(=O)N3CC[C@H]3C(=O)N(C)[C@H]3CC(C)=C(C)CN(C3=O)[C@@H](Cc3ccc(C(F)(F)F)cc3)C(=O)N(C)CC(=O)N[C@@H](CCc3cc(F)c(C(F)(F)F)c(F)c3)C(=O)N2C1 [PP1049] | – | – | 0.359 µM | – | – | C (A compound having a KD ratio of 0.1 or more and less than 3 is denoted as C) | C (A compound having a KD ratio of 0.1 or more and less than 3 is denoted as C)
12 | CCO[C@@H]1C[C@H]2C(=O)NC3(CC(C)(C)C3)C(=O)N(C)[C@@H](C3CCCC3)C(=O)N(C)[C@H](C(=O)N(C)CC)CC(=O)N(C)[C@H]3CCC/C=C/c4ccc(cc4)C[C@@H](C(=O)N(C)CC(=O)N[C@@H](CCc4ccc(Cl)c(Cl)c4)C(=O)N2C1)N1CC/C=C\C[C@@H](C1=O)N(C)C(=O)CN(C)C(=O)[C@H]([C@@H](C)CC)NC3=O [PP2577] | – | – | 0.0041 µM | – | – | A (a compound having 10 or more and less than 20 is denoted as A) | A (a compound having 10 or more and less than 20 is denoted as A)
13 | CCCN1C(=O)CN(C)C(=O)[C@@H]2CCN2C(=O)[C@H]([C@@H](C)CC)NC(=O)[C@H](CC(C)C)N(C)C(=O)C[C@@H](C(=O)N2CCOCC2)N(C)C(=O)[C@H](C2CCCC2)N(C)C(=O)C2(CCCC2)NC(=O)[C@@H]2CC(F)(F)CN2C(=O)[C@H](CCc2ccc(C(F)(F)F)c(Cl)c2)NC(=O)CN(C)C(=O)[C@@H]1Cc1ccc(C(F)(F)F)cc1 [PP0403] ([NMeL]I[Aze][Sar][NPrPhe(4-CF3)][Sar][hPhe(3-Cl-4-CF3)][Pro(4,4-F2)][Ac5c][NMeGly(cPent)][NMeD]-Morpholide; lactam N-11) | B (a compound having 3 or more and less than 10 is denoted as B) | B (a compound having 3 or more and less than 10 is denoted as B) | 0.0194 µM | – | – | – | –
14 | CC[C@H](C)[C@@H]1NC(=O)[C@H](CC(C)C)N(C)C(=O)C[C@@H](C(=O)N2CCOCC2)N(C)C(=O)[C@H](C2CCCC2)N(C)C(=O)C2(CCCC2)NC(=O)[C@@H]2C[C@H](OC)CN2C(=O)[C@H](CCc2cc(F)c(C(F)(F)F)c(F)c2)NC(=O)CN(C)C(=O)[C@H](Cc2ccc(C(F)(F)F)cc2)N2CCCC[C@@H](C2=O)N(C)C(=O)CN(C)C1=O [PP0557] | B (a compound having 3 or more and less than 10 is denoted as B) | B (a compound having 3 or more and less than 10 is denoted as B) | 0.0148 µM | – | – | – | –
15 | CCC[C@@H]1C[C@H]2C(=O)NC3(CCC3)C(=O)N(C)[C@@H](C3CCCC3)C(=O)N(C)[C@H](C(=O)N(C)C)CC(=O)N(C)[C@@H](CC)C(=O)N[C@@H]([C@@H](C)CC)C(=O)N(C)CC(=O)N(C)[C@H]3C/C=C\CCN(C3=O)[C@@H](Cc3ccc(C)cc3)C(=O)N(C)CC(=O)N[C@@H](CCc3cc(F)c(C(F)(F)F)c(F)c3)C(=O)N2C1 [PP2233] | A (a compound having 10 or more and less than 20 is denoted as A) | A (a compound having 10 or more and less than 20 is denoted as A) | 0.0276 µM | – | – | – | –
